Test results from patent publication US20260137790A1, “MIXED VASOPRESSIN RECEPTOR AGONIST-ANTAGONIST FOR MODULATING MEAN ARTERIAL PRESSURE” (FERRING B.V., priority 2022, published 2026).

What was measured:
rOTR = target: T1, rOTR (Rattus norvegicus, UniProt P70536); settings: relative to carbetocin
T1 sequence (P70536 1-388): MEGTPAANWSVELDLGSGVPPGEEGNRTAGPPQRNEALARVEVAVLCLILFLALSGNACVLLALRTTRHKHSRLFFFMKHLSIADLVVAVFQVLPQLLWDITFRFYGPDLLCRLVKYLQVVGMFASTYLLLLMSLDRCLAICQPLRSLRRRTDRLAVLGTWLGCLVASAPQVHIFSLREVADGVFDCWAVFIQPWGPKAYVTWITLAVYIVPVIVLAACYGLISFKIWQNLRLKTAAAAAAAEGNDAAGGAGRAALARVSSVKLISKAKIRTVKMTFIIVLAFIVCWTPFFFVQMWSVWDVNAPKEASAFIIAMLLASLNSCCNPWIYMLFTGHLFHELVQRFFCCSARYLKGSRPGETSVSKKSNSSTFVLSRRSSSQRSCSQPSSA
Protocol: (§1) Cell Maintenance. HEK-flp-in cells were maintained in Dulbecco's modified Eagle's medium (DMEM) containing 10% (v/v) heat-inactivated fetal bovine serum (FBS), 4 mM GlutaMAX™—I, and 25 μg/mL hygromycin B at 37° C. under 5% CO2 in a humidified atmosphere. […] On the day prior to the assay, cells were removed from culture flasks using trypsin EDTA, harvested in the medium used for cell culture, and seeded into 384-well (for V1a) or 96-well (for other receptors) poly-d-Iysine-treated plates at 7.5×10^4 cells in 20 μL/well for rV1a, 2.5×10^4 cells in 20 μL/well for hV1a, and 4-5×10^4 cells in 100 μL/well for all other receptors.
(§2) Functional Cell-Based Assays. To detect activity generated by binding of the test compounds to endogenous rV1a receptors or the stably expressed hV1a receptors, Fluorometric Imaging Plate Reader (FLlPR) calcium assays were performed. Briefly, real-time fluorescence of an intracellular calcium-sensitive dye was measured immediately upon addition of the test compound at various concentrations. […] Reporter gene assays were used to monitor agonist-induced activity at the human and rat V1b, V2, and OT receptors. […] Expression of the luciferase gene was determined after 5-h incubation with various concentrations of test compound. […] For V1a receptor response, area under the curve of the real-time calcium traces, expressed as relative fluorescence units, was determined. […]

adult male Wistar rats = experiment: Skin blood flow and blood lactate in anesthetized rats (IV infusion); type: in vivo, rat
Protocol: This study was performed over multiple experiments using a total of 48 adult male Wistar rats. […] Compounds were infused via an IV catheter at six sequentially increasing doses.
On the day of experimentation animals were anesthetized and instrumented. A tracheostomy was performed to allow assisted respiration and three catheters were placed. Laser Doppler probes were positioned on a shaved portion of the animal's lower abdominal skin for blood-flow measurements. Ventilation was initiated, and baseline readings for the primary parameter of skin blood flow (SBF) were recorded. Readings for the secondary parameters were also recorded: (1) blood lactate concentration, (2) mean arterial pressure (MAP), and (3) blood pH. Data collection was performed continuously for SBF and MAP using NOTOCORD-hem™ (Instem), and blood samples were taken at each compound dose and immediately analyzed using an i-STAT® meter.
After the final dose administration, animals were euthanized and a final SBF measurement was recorded to detect any signal from the flow probe after the animal's heart stopped beating to control for a signal not attributed to blood flow. Animal body temperature, pulse, and ventilation adequacy were monitored throughout the procedure.

rV2 = target: T2, rV2 (Rattus norvegicus, UniProt Q00788); experiment: Luciferase reporter gene assay, rV2; type: cell-based; settings: rV2, relative to dDAVP
T2 construct: host or cells: HEK-293 cells, transient
T2 sequence (Q00788 whole entry): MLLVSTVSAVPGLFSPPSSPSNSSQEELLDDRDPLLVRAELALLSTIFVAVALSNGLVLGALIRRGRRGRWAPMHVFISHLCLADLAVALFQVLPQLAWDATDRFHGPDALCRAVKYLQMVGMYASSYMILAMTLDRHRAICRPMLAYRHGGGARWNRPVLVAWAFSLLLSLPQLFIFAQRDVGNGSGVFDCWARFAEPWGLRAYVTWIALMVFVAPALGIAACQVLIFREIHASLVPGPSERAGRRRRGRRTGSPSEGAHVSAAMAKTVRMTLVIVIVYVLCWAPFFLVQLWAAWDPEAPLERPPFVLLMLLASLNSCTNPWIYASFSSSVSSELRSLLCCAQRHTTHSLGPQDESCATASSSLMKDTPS
Protocol: as §1, §2

**Q.** `NC(=O)CC[C@@H]1NC(=O)[C@H](Cc2ccccc2)NC(=O)[C@H](Cc2ccc(O)cc2)NC(=O)[C@@H](N)CSSC[C@@H](C(=O)N2CCC[C@H]2C(=O)N[C@@H](CCCN=C(N)N)C(=O)NCC(N)=O)NC(=O)[C@H](CC(N)=O)NC1=O` [AVP, arginine vasopressin] was tested. Which “% MPE Mean” value (rOTR) did it give?
**A.** 82 % MPE

**Q.** And the “ED50, skin blood flow” value (adult male Wistar rats; anesthetized rats, IV infusion)?
**A.** 12.6 pmol/kg/min

**Q.** And the “mean blood lactate concentration” value (adult male Wistar rats; rats, IV 3 pmoL/kg/min)?
**A.** 1.34 mM

**Q.** What about the “mean blood lactate concentration” value (adult male Wistar rats; rats, IV 600 pmoL/kg/min) of the same molecule?
**A.** 4.27 mM

**Q.** What about the “blood lactate at highest doses tested” value (adult male Wistar rats; rats, IV, compared with vehicle) of the same molecule?
**A.** significantly elevated

**Q.** What about the “decrease of skin blood flow from baseline (approximate maximal)” value (adult male Wistar rats; rats, intravenous administration) of the same molecule?
**A.** about 90%

**Q.** What about the “% MPE Mean” value (rV2) of the same molecule?
**A.** 98 % MPE
